For series [1] the following is noted: depending on the dose and the treatment duration; cited from earlier work.
Series [2] concerns patients affected by Crohn's disease. Description: Clinical multi-center randomised trial versus placebo in Crohn's disease. In kind it is in vivo, human. The following applies: 27 patients. An excerpt:
55 Crohn's disease patients in acute, mild to moderate grade, phase, having CDAI (Crohn Disease Active Index) value between 200 and 300, have been recruited. The primary end point was represented by the percentage of the patients in clinic remission defined as CDAI lower than 150 points at the end of the study. The patients, randomised in two groups: group A, of 27 patients and group B of 28 patients, have been treated for 12 weeks according to the following therapeutic schemes:
Group B: placebo, administrated 2 times in a day in a such quantity to correspond to the content of the dose of the active principle.

The test system of series [3] is Crohn's patients characterized by a protein C reactive value higher than normal. Description: Crohn's patients with protein C reactive value higher than normal (subgroup of the trial). In kind it is in vivo, human. The settings on record: subgroup with protein C value higher than normal values; 16 patients treated with rifaximin.
[4] abbreviates: CDAI lower than 150 after 12 weeks, rifaximin 800 mg 2 times a day (preparation of example 3).

The values that follow come from patent publication US10285944B2 (ALFASIGMA S.P.A., priority 2005, dated 2019).

`Cc1ncc([N+](=O)[O-])n1CCO` [metronidazole]: the “incidence of side effects” value in series [1] is listed as 10-20%.
Turning to `CO[C@H]1/C=C/O[C@@]2(C)Oc3c(C)c(O)c4c(O)c(c5c(nc6cc(C)ccn65)c4c3C2=O)NC(=O)/C(C)=C\C=C\[C@H](C)[C@H](O)[C@@H](C)[C@@H](O)[C@@H](C)[C@H](OC(C)=O)[C@@H]1C` [rifaximin], the “therapeutic failure, percentage of the patients” value in series [2] (12 weeks, rifaximin 800 mg 2 times a day) is listed as “(3.4%)”. For the same molecule, in series [2] (setting [4]), the “Number of clinical remission” value was 14 and the “clinical remission, percentage of the patients” value is “(51.9%)”. Further, in series [3], the “Number of clinical remission” value is listed as 10; the “clinical remission, percentage of the patients” value is given as “(62.5%)”; the “therapeutic failure, percentage of the patients” value was “(0%)”.
